Drawing on DBAASP, this text covers MIC for five compounds.

SMILES strings stand for the structures. In brackets after ≈: the same amount, converted by molar mass. Some results are limits rather than exact numbers.

Some test systems named below: Escherichia coli K-12; Escherichia coli; Campylobacter jejuni; Pseudomonas aeruginosa; Escherichia coli AS1.349; Bacillus cereus AS1.126.
Common to all, as to assay: ≥ marks a high value that may be exact or a test limit, other limits are often not marked, values filed in µg/mL are converted to µM
For assay [1], the system named is Staphylococcus aureus CMCC 26003.
Assay [2] has as its system Listeria monocytogenes ATCC 19115.
Assay [3] has as its system Fusarium verticillioides KCTC 6149.
Assay [4] concerns Trichophyton rubrum KCTC 6345.
Assay [5] has as its system Candida albicans CCARM 14001.
Assay [6] relates to Fusarium graminearum KCTC 16656.
Assay [7] relates to Fusarium solani KCTC 6326.
For assay [8], the system named is Candida krusei CCARM 14017.
Assay [9] relates to Fusarium oxysporum KCTC 16909.
Assay [10] deals with Candida parapsilosis CCARM 14016.
Assay [11] relates to Candida albicans CCARM 14004.
Assay [12] deals with Candida albicans KCTC 7270.
The subject of assay [13] is Colletotrichum gloeosporioides KCTC 6169.
Assay [14] concerns Candida albicans CCARM 14007.
Assay [15] concerns Candida albicans CCARM 14020.
Assay [16] concerns Trichoderma viride KCTC 16992.
Assay [17] concerns Trichoderma virens KCTC 16924.
Assay [18] deals with Aspergillus flavus KCTC 6905.
For assay [19], the system named is Pseudomonas aeruginosa Q14-0208.
Assay [20] concerns Acinetobacter baumannii Q12-0867.
Assay [21] relates to Pseudomonas aeruginosa PAO1.
Assay [22] has as its system Klebsiella pneumoniae ATCC 700603.
Assay [23] deals with Staphylococcus aureus Q14-0320.
Assay [24] deals with Acinetobacter baumannii Q13-0717.
Assay [25] has as its system Campylobacter jejuni NCTC 11351.
Assay [26] has as its system Staphylococcus aureus ATCC 29213.
Assay [27] deals with Enterococcus faecalis JH-2-2.
Assay [28] has as its system Klebsiella pneumoniae Q14-0095.
For assay [29], the system named is Pseudomonas aeruginosa ATCC 27853.
Assay [30] has as its system Staphylococcus aureus NCTC 12493.
In assay [31] the test system is Klebsiella pneumoniae NCTC 13442.
Assay [32] concerns Staphylococcus aureus MRSA-15.
Assay [33] deals with Staphylococcus aureus Q14-0325.
The subject of assay [34] is Staphylococcus aureus RN4220.
The subject of assay [35] is Pseudomonas aeruginosa Q14-0890.
For assay [36], the system named is Listeria monocytogenes NCTC 11994.
In assay [37] the test system is Salmonella typhimurium SL1344.
The subject of assay [38] is Lactococcus lactis AS1.1690.
Assay [39] has as its system Staphylococcus aureus AS1.72.
Assay [40] concerns Enterococcus faecalis CGMCC 1.595.
The test system of assay [41] is Pseudomonas aeruginosa CGMCC 1.860.
For assay [42], the system named is Enterococcus faecium CGMCC 1.2334.

Take `CC[C@H](C)[C@H](NC(=O)[C@H](CCCN=C(N)N)NC(=O)[C@H](CCCN=C(N)N)NC(=O)[C@H](CC(C)C)NC(=O)[C@@H](N)Cc1ccccc1)C(=O)N[C@@H](CCCN=C(N)N)C(=O)N[C@H](C(N)=O)C(C)C` [FLRRIRV]: the MIC in assay [1] and in assay [2] was no less than 133 µM each time.
Take `NCCCC[C@H](NC(=O)[C@H](CCCCN)NC(=O)[C@H](Cc1cnc[nH]1)NC(=O)[C@H](CCCCN)NC(=O)[C@H](CCCCN)NC(=O)[C@H](Cc1cnc[nH]1)NC(=O)[C@H](CCCCN)NC(=O)[C@H](CCCCN)NC(=O)[C@H](Cc1cnc[nH]1)NC(=O)[C@H](CCCCN)NC(=O)[C@H](CCCCN)NC(=O)[C@H](Cc1cnc[nH]1)NC(=O)[C@H](CCCCN)NC(=O)[C@H](CCCCN)NC(=O)[C@H](Cc1cnc[nH]1)NC(=O)[C@H](CCCCN)NC(=O)[C@H](CCCCN)NC(=O)[C@H](Cc1cnc[nH]1)NC(=O)[C@H](CCCCN)NC(=O)[C@H](CCCCN)NC(=O)[C@H](Cc1cnc[nH]1)NC(=O)[C@H](CCCCN)NC(=O)[C@H](CCCCN)NC(=O)[C@@H](N)Cc1cnc[nH]1)C(N)=O` [HKKHKKHKKHKKHKKHKKHKKHKK]: the minimal inhibitory concentration (MIC) is 2 µM (≈ 6.33 µg/mL) in assay [3]; 2 µM (≈ 6.33 µg/mL) in assay [4]; 8 µM (≈ 25.3 µg/mL) in assay [5]; 4 µM (≈ 12.7 µg/mL) in [6]; 1 µM (≈ 3.16 µg/mL) in [7]; 4 µM (≈ 12.7 µg/mL) in [8]. For the same compound, the MIC was 2 µM (≈ 6.33 µg/mL) in [9]; 8 µM (≈ 25.3 µg/mL) in [10]; 8 µM (≈ 25.3 µg/mL) in assay [11]; 8 µM (≈ 25.3 µg/mL) in [12]; 1 µM (≈ 3.16 µg/mL) in [13]; 8 µM (≈ 25.3 µg/mL) in [14]. In addition, the minimal inhibitory concentration (MIC) in assay [15] was 8 µM (≈ 25.3 µg/mL); in assay [16], 1 µM (≈ 3.16 µg/mL); in assay [17] it was 4 µM (≈ 12.7 µg/mL); in assay [18], 2 µM (≈ 6.33 µg/mL).
Take `NCCCC[C@H](NC(=O)[C@H](CCCCN)NC(=O)[C@H](Cc1cnc[nH]1)NC(=O)[C@H](CCCCN)NC(=O)[C@H](CCCCN)NC(=O)[C@H](Cc1cnc[nH]1)NC(=O)[C@H](CCCCN)NC(=O)[C@H](CCCCN)NC(=O)[C@@H](N)Cc1cnc[nH]1)C(N)=O` [HKKHKKHKK]: the minimum inhibitory concentration (MIC) in [3] is 16 µM (≈ 19.2 µg/mL); in [4], no less than 32 µM; in assay [5], no less than 64 µM; in [6], no less than 32 µM; in assay [7] it was 16 µM (≈ 19.2 µg/mL); in assay [8], 16 µM (≈ 19.2 µg/mL). The MIC in [9] is no less than 32 µM; in assay [10] it was no less than 32 µM; in assay [11], no less than 64 µM; in assay [12] it was no less than 64 µM; in [13], 8 µM (≈ 9.58 µg/mL); in assay [14] it was no less than 64 µM. In addition, the minimal inhibitory concentration (MIC) is no less than 64 µM in assay [15], 16 µM (≈ 19.2 µg/mL) in [16], 16 µM (≈ 19.2 µg/mL) in assay [17] and 16 µM (≈ 19.2 µg/mL) in assay [18].
For `CC[C@H](C)[C@H](NC(=O)CNC(=O)[C@H](CCCN=C(N)N)NC(=O)CNC(=O)[C@H](CCCCN)NC(=O)[C@H](CC(N)=O)NC(=O)[C@H](CCCCN)NC(=O)[C@H](CC(=O)O)NC(=O)[C@H](CCCN=C(N)N)NC(=O)[C@H](CS)NC(=O)[C@H](Cc1ccc(O)cc1)NC(=O)[C@@H](NC(=O)[C@H](CCCCN)NC(=O)[C@H](CC(C)C)NC(=O)[C@H](CCCN=C(N)N)NC(=O)[C@@H](NC(=O)[C@H](Cc1ccccc1)NC(=O)[C@@H](N)CCCCN)C(C)C)[C@@H](C)CC)C(=O)N[C@@H](CO)C(=O)N[C@@H](Cc1ccccc1)C(=O)O` [KFVRLKIYCRDKNKGRGISF], the MIC in assay [19] is no less than 52.7 µM; in [20], 26.3 µM (≈ 64 µg/mL); in assay [21] it was 52.7 µM (≈ 128 µg/mL); in assay [22], 52.7 µM (≈ 128 µg/mL); against Escherichia coli K-12, 26.3 µM (≈ 64 µg/mL); in assay [23], no less than 52.7 µM. Further, the MIC in [24] is no less than 52.7 µM; in [25], no less than 52.7 µM; in assay [26], greater than 52.7 µM; in [27], no less than 52.7 µM; against Escherichia coli it was 52.7 µM (≈ 128 µg/mL); in [28], no less than 52.7 µM. The MIC in assay [29] is 52.7 µM (≈ 128 µg/mL); in assay [30], 26.3 µM (≈ 64 µg/mL); in [31] it was no less than 52.7 µM; in [32] it was no less than 52.7 µM; against Campylobacter jejuni, no less than 52.7 µM; in assay [33], 26.3 µM (≈ 64 µg/mL). Also, the MIC was no less than 52.7 µM in assay [34]; 26.3 µM (≈ 64 µg/mL) in [35]; no less than 52.7 µM in assay [36]; 13.2 µM (≈ 32 µg/mL) against Pseudomonas aeruginosa; no less than 52.7 µM in assay [37].
Regarding `NC(N)=NCCC[C@H](NC(=O)[C@H](Cc1cnc[nH]1)NC(=O)[C@H](Cc1c[nH]c2ccccc12)NC(=O)[C@H](Cc1ccccc1)NC(=O)[C@H](CCCN=C(N)N)NC(=O)[C@H](CCCN=C(N)N)NC(=O)[C@H](Cc1c[nH]c2ccccc12)NC(=O)[C@H](Cc1cnc[nH]1)NC(=O)[C@@H](N)CCCN=C(N)N)C(=O)O` [RHWRRFWHR], the MIC was 6.25 µM (≈ 8.98 µg/mL) with Escherichia coli AS1.349; 6.25 µM (≈ 8.98 µg/mL) in assay [38]; 6.25 µM (≈ 8.98 µg/mL) in the assay on Bacillus cereus AS1.126; 12.5 µM (≈ 18 µg/mL) in [39]; 3.13 µM (≈ 4.5 µg/mL) in assay [40]; 3.13 µM (≈ 4.5 µg/mL) in assay [41]. This compound also registered an MIC in assay [42] of 6.25 µM (≈ 8.98 µg/mL).

As a reminder, the MIC is the smallest concentration in the dilution series that meets the test's criterion for growth inhibition. A higher MIC goes with weaker potency.
